Test results: US6545007B2, “Methods for inhibiting the transmission of HIV using topically applied substituted 6-benzyl-4-oxopyrimidines” (Idenix (Cayman) Limited, priority 2000, dated 2003)
Like-named read-outs stand apart in the source and are kept apart here.

Tests used:
[1] = system: mock-infected MT-4 cells; assay: Cytotoxicity: viability of mock-infected cells by the MTT method; type: cell-based, human
Experimental: (§1) Cells and viruses. MT-4, C8166,H9/IIIB and CEM cells were grown at 37° C. in a 5% CO2 atmosphere in RPMI 1640 medium, supplemented with 10% fetal calf serum (FCS), 100 IU/mL penicillin and 100 μg/mL streptomycin. Cell cultures were checked periodically for the absence of mycoplasma contamination with a MycoTect Kit (Gibco). Human immunodeficiency virus type-I (HIV-1, IIIB strain) was obtained from supernatants of persistently infected H9/IIIB cells.
(§2) Anti-HIV Assays. Activity of the compounds against HIV-1 and HIV-2 multiplication in acutely infected cells was based on the inhibition of virus-induced cytopathicity in MT-4 and C8166 cells, respectively. Briefly, 50 μL of culture medium containing 1×10^4 cells were added to each well of flat-bottom microtiter trays containing 50 μl of culture medium with or without various concentrations of the test compounds. Then 20 μL of an HIV suspension containing 100 CCID50 were added. After a 4-day incubation at 37° C., the number of viable cells was determined by the 3-(4,5-dimethylthiazol-[…])-2,5-diphenyltetrazolium bromide (MTT) method. Cytotoxicity of the compounds was evaluated in parallel with their antiviral activity. It was based on the viability of mock-infected cells, as monitored by the MTT method.

[2] = system: HIV-1 (IIIB strain); type: cell-based; details: for EC50: anti-HIV-1 activity; for SI: selectivity index (CC50/EC50)
Experimental: Compounds. Compounds were solubilized in DMSO at 200 mM and then diluted into culture medium.
as §1
HIV Titration. Titration of HIV was performed in C8166 cells by the standard limiting dilution method (dilution 1:2, four replica wells per dilution) in 96-well plates. The infectious virus titre was determined by light microscope scoring of cytopathicity after 4 days of incubation and the virus titres were expressed as CCID50/mL.
as §2

[3] = acutely infected MT-4 cells, MTT

Compound | CC50 [1] [µM] | EC50 ([2]; HIV-1-infected MT-4 cells) [µM] | SI [2] | CC50 ([1]; MTT) [µM] | EC50 [2, 3] [µM]
CCC(C)Sc1nc(Cc2ccc(C)cc2)c(C)c(=O)[nH]1 (centres unmarked) [MC 845] | 26 | 0.8 | 32 |  | 
Cc1ccccc1Cc1cc(=O)[nH]c(SC2CCCC2)n1 [MC 842] | > 200 | 3.4 | >59 |  | 
CCN(CC)c1nc(Cc2c(F)cccc2F)cc(=O)[nH]1 [MC 1202] |  |  |  | > 200 | 0.26
CCC(C)Sc1nc(Cc2ccccc2F)cc(=O)[nH]1 (centres unmarked) [MC 880] | 200 | 0.26 | 769 |  | 
O=c1cc(Cc2c(F)cccc2F)nc(SC2CCCC2)[nH]1 [MC 867] | > 200 | 0.08 | >2,500 |  | 
CCC(c1ccccc1)c1cc(=O)[nH]c(SC2CCCCC2)n1 (centres unmarked) [MC 903] | > 200 | 1.3 | >154 |  | 
Cc1c(Cc2c(F)cccc2F)nc(NC(C)C)[nH]c1=O [MC 1118] | 190 | 0.03 | 6,333 |  | 
CC1CCC(Oc2nc(Cc3ccccc3)cc(=O)[nH]2)CC1C (centres unmarked) [MC 508] | 58 | 6.4 | 9 |  | 
CCC(C)Sc1nc(Cc2cccc(OC)c2)cc(=O)[nH]1 (centres unmarked) [MC 957] | > 200 | 1.2 | >166 |  | 
CCCN(CCC)c1nc(Cc2c(F)cccc2F)cc(=O)[nH]1 [MC 1204] |  |  |  | > 200 | 3.8
CCC(c1cc(=O)[nH]c(SC(C)C)n1)c1c(F)cccc1F (centres unmarked) [MC 1005] | 70 | 0.08 | 875 |  | 
Cc1c(C(C)c2c(F)cccc2F)nc(SC2CCCC2)[nH]c1=O (single isomer, unassigned) [MC 1047+] |  |  |  | > 200 | 0.002
O=c1cc(Cc2c(F)cccc2F)nc(N2CCOCC2)[nH]1 [MC 1188] |  |  |  | > 200 | 0.6
CCC(C)Sc1nc(Cc2ccccc2F)c(C)c(=O)[nH]1 (centres unmarked) [MC 913] | 140 | 0.41 | 341 |  | 
Cc1c(C(C)c2c(F)cccc2F)nc(SC(C)C)[nH]c1=O (centres unmarked) [MC 1137] |  |  |  | 200 | 0.007
CCC(c1ccccc1)c1cc(=O)[nH]c(SC(C)C)n1 (centres unmarked) [MC 899] | 200 | 0.8 | 250 |  | 
CCc1c(Cc2c(F)cccc2F)nc(SC(C)C)[nH]c1=O [MC 1037] | 65 | 0.2 | 326 |  | 
CCC(C)Sc1nc(C(C)c2c(F)cccc2F)cc(=O)[nH]1 (centres unmarked) [MC 1110] | > 200 | 0.03 | >6,666 |  | 
CCC(c1ccccc1)c1cc(=O)[nH]c(SC2CCCC2)n1 (centres unmarked) [MC 900] | > 200 | 1 | >200 |  | 
O=c1cc(Cc2ccccc2)nc(SCOCc2ccccc2)[nH]1 [MC 843] | > 200 | 45 | >4 |  | 
O=c1cc(Cc2c(F)cccc2F)nc(NC2CC2)[nH]1 [MC 980] | > 200 | 3.17 | >63 |  | 
CCC(C)Nc1nc(C(C)c2c(F)cccc2F)cc(=O)[nH]1 (centres unmarked) [MC 1192] |  |  |  | 86 | 0.04
CCCCc1c(Cc2ccccc2)nc(SC(C)CC)[nH]c1=O (centres unmarked) [MC 834] | > 200 | > 200 |  |  | 
CCCCSc1nc(Cc2c(Cl)cccc2Cl)cc(=O)[nH]1 [MC 886] | > 200 | 0.44 | >454 |  | 
CC(C)Sc1nc(C(C)c2c(Cl)cccc2Cl)cc(=O)[nH]1 (centres unmarked) [MC 1001] | 117 | 1.2 | 97.5 |  | 
CC(C)CSc1nc(Cc2c(Cl)cccc2Cl)cc(=O)[nH]1 [MC 885] | > 200 | 0.45 | >444 |  | 
CC(C)Sc1nc(C(C)c2c(F)cccc2F)cc(=O)[nH]1 (centres unmarked) [MC 1007] | 167 | 0.05 | 3,340 |  | 
CCC(C)Sc1nc(Cc2ccccc2[N+](=O)[O-])cc(=O)[nH]1 (centres unmarked) [MC 817] | > 200 | 0.25 | >800 |  | 
